Values quoted from earlier work in patent US6713046B1, “Magnetic resonance imaging agents for the delivery of therapeutic agents” (Research Corporation Technologies, priority 1997, dated 2004).

Settings: thermodynamic stability of the Gd(III) chelate complex; background statement

## O=C([O-])CN1CCN(CC(=O)[O-])CCN(CC(=O)O)CCN(CC(=O)[O-])CC1.[Gd+3] [Gd-DOTA]
  stability constant (K), formation constant, logK: 28.5
